Data: patent US20050288273A1, “Antibacterial agents” (priority 2003, published 2005)
Values after ≈ are worked out from the molar mass of the structure shown.

Experiments:
E. coli Tol C = experiment: Antibacterial assay (MIC), standard microtitration, Gram negative; assay type: cell-based; details: for Minimum Inhibitory Concentrations E. coli Tol C: Gram negative bacteria; for MIC: Escherichia coli, read-out: Minimum Inhibitory Concentrations E. coli Tol C
Description: (§1) Test A—Antibacterial Assays

M. catarrhalis BC3534 = experiment: as above; assay type: cell-based; details: Gram negative bacteria; for MIC: Moraxella catarrhalis, BC3534, read-out: Minimum Inhibitory Concentrations M. catarrhalis BC3534
Description: as §1

H. influenzae HI3542 = experiment: as above; assay type: cell-based; details: Gram negative bacteria; for MIC: Haemophilus influenzae, HI3542, read-out: Minimum Inhibitory Concentrations H. influenzae HI3542
Description: as §1

S. aureus UC-76 = experiment: Antibacterial assay (MIC), standard microtitration, Gram positive; assay type: cell-based; details: Gram positive bacteria; for MIC: Staphylococcus aureus, UC76, read-out: Minimum Inhibitory Concentrations S. aureus UC-76
Description: as §1

E. faecalis MGH-2 = experiment: as above; assay type: cell-based; details: Gram positive bacteria; for MIC: Enterococcus faecalis, MGH2, read-out: Minimum Inhibitory Concentrations E. faecalis MGH-2
Description: as §1

S pyogenes C203 = experiment: as above; assay type: cell-based; details: Gram positive bacteria; for MIC: read-out: Minimum Inhibitory Concentrations S pyogenes C203
Description: as §1

CC(=S)NC[C@H]1CN(c2ccc3c(c2)CCCc2cnoc2-3)C(=O)O1
melting point: 185 to 195 °C

CC(=S)NC[C@H]1CN(c2ccc3c(c2)CCCc2cn[nH]c2-3)C(=O)O1
melting point: 190 to 195 °C

CC(C)(C)OC(=O)NC[C@H]1CN(c2ccc3c(c2)CCCc2cnoc2-3)C(=O)O1
melting point: 180 to 184 °C

Cl.NC[C@H]1CN(c2ccc3c(c2)CCCc2cnoc2-3)C(=O)O1
melting point: 245 to 258 °C

Cl.NC[C@H]1CN(c2ccc3c(c2)CCCc2cn[nH]c2-3)C(=O)O1
melting point: 201 to 223 °C

CCC(=O)NC[C@H]1CN(c2ccc3c(c2)CCCc2cnoc2-3)C(=O)O1
melting point: 185 to 186 °C

CC(C)C(=O)NC[C@H]1CN(c2ccc3c(c2)CCCc2cnoc2-3)C(=O)O1
melting point: 187 to 193 °C

O=C(NC[C@H]1CN(c2ccc3c(c2)CCCc2cnoc2-3)C(=O)O1)C1CC1
melting point: 211 to 215 °C

O=C(CC1CC1)NC[C@H]1CN(c2ccc3c(c2)CCCc2cnoc2-3)C(=O)O1
melting point: 187 to 191 °C

O=C(CC1CCCC1)NC[C@H]1CN(c2ccc3c(c2)CCCc2cnoc2-3)C(=O)O1
melting point: 193 to 195 °C

COC(=O)CC(=O)NC[C@H]1CN(c2ccc3c(c2)CCCc2cnoc2-3)C(=O)O1
melting point: 205 to 217 °C

O=C(NC[C@H]1CN(c2ccc3c(c2)CCCc2cnoc2-3)C(=O)O1)c1ccccc1
melting point: 240 to 245 °C

O=C(CC(F)(F)F)NC[C@H]1CN(c2ccc3c(c2)CCCc2cnoc2-3)C(=O)O1
melting point: 150 to 186 °C

O=C(NC[C@H]1CN(c2ccc3c(c2)CCCc2cnoc2-3)C(=O)O1)C(F)F
melting point: 145 to 180 °C

CC(C)C(=O)NC[C@H]1CN(c2ccc3c(c2)CCCc2cnn(C(=O)C(C)C)c2-3)C(=O)O1
melting point: 75 to 80 °C

O=C(CC1CCCC1)NC[C@H]1CN(c2ccc3c(c2)CCCc2cnn(C(=O)CC4CCCC4)c2-3)C(=O)O1
melting point: 165 to 167 °C

O=C(NC[C@H]1CN(c2ccc3c(c2)CCCc2cnn(C(=O)c4ccccc4)c2-3)C(=O)O1)c1ccccc1
melting point: 75 to 95 °C

O=C(NC[C@H]1CN(c2ccc3c(c2)CCCc2cn[nH]c2-3)C(=O)O1)C(F)F
melting point: 147 to 150 °C

CCC(=O)NC[C@H]1CN(c2ccc3c(c2)CCCc2cn[nH]c2-3)C(=O)O1
melting point: 233 to 235 °C

O=C(NC[C@H]1CN(c2ccc3c(c2)CCCc2cn[nH]c2-3)C(=O)O1)C1CC1
melting point: 224 to 227 °C

O=C(CC1CC1)NC[C@H]1CN(c2ccc3c(c2)CCCc2cn[nH]c2-3)C(=O)O1
melting point: 212 to 215 °C

O=C(CC1CCCC1)NC[C@H]1CN(c2ccc3c(c2)CCCc2cn[nH]c2-3)C(=O)O1
melting point: 205 to 208 °C

O=C(NC[C@H]1CN(c2ccc3c(c2)CCCc2cn[nH]c2-3)C(=O)O1)c1ccccc1
melting point: 105 to 125 °C

O=C(CC(F)(F)F)NC[C@H]1CN(c2ccc3c(c2)CCCc2cn[nH]c2-3)C(=O)O1
melting point: 243 to 245 °C

COC(=O)NC[C@H]1CN(c2ccc3c(c2)CCCc2cnoc2-3)C(=O)O1
melting point: 166 to 168 °C

CCOC(=O)NC[C@H]1CN(c2ccc3c(c2)CCCc2cnoc2-3)C(=O)O1
melting point: 181 to 183 °C

CCNC(=O)NC[C@H]1CN(c2ccc3c(c2)CCCc2cnoc2-3)C(=O)O1
melting point: 193 to 196 °C

COC(=O)NC[C@H]1CN(c2ccc3c(c2)CCCc2cn[nH]c2-3)C(=O)O1
melting point: 87 to 93 °C

CCOC(=O)NC[C@H]1CN(c2ccc3c(c2)CCCc2cn[nH]c2-3)C(=O)O1
melting point: 122 to 126 °C

CN(C)/C=C1/CCCc2cc(N3C[C@H](CNC(=O)OC(C)(C)C)OC3=O)ccc2C1=O (stereo in doubt)
melting point: 157 to 160 °C

O=C1O[C@@H](CNC(=O)C(F)(F)F)CN1c1ccc2c(c1)CCCc1cnoc1-2 (stereo in doubt)
melting point: 203 to 205 °C

CC(=O)NC[C@H]1CN(c2ccc3c(c2)-c2[nH]ncc2CCC3)C(=O)O1 [Example 1, (S)-N-[2-Oxo-3-(1,4,5,6-tetrahydro-1,2-diaza-benzo[e]azulen-9-yl)oxalidin-5-ylmethyl]acetamide]
Minimum Inhibitory Concentrations E. coli Tol C (E. coli Tol C): >64 µg/mL | Minimum Inhibitory Concentrations M. catarrhalis BC3534 (M. catarrhalis BC3534): >64 µg/mL | Minimum Inhibitory Concentrations H. influenzae HI3542 (H. influenzae HI3542): >64 µg/mL | Minimum Inhibitory Concentrations S. aureus UC-76 (S. aureus UC-76): >64 µg/mL | Minimum Inhibitory Concentrations E. faecalis MGH-2 (E. faecalis MGH-2): >64 µg/mL | Minimum Inhibitory Concentrations S pyogenes C203 (S pyogenes C203): >64 . . . μg/mL

CC(=O)NC[C@H]1CN(c2ccc3c(c2)-c2oncc2CCC3)C(=O)O1 [Example 4, (S)-N-[3-(5,6-dihydro-4H-1-oxa-2-aza-benzo[e]azulen-9-yl)-2-oxo-oxazolidin-5-ylmethyl]acetamide]
MIC (E. coli Tol C): > 64 µg/mL | MIC (M. catarrhalis BC3534): 1 µg/mL (≈ 2.93 µM) | MIC (H. influenzae HI3542): 2 µg/mL (≈ 5.86 µM) | MIC (S. aureus UC-76): 0.5 µg/mL (≈ 1.46 µM) | MIC (E. faecalis MGH-2): 0.25 µg/mL (≈ 0.732 µM) | MIC (S pyogenes C203): 0.125 µg/mL (≈ 0.366 µM)

CC(=O)NC[C@H]1CN(c2ccc3c(c2)CCCc2c(-c4ccc(F)cc4)n[nH]c2-3)C(=O)O1 [Example 95, (S)-N-{3-[3-(4-Fluoro-phenyl)-1,4,5,6-tetrahydro-1,2-diaza-benzo[e]azulen-8-yl]-2-oxo-oxazolidin-5-ylmethyl}-acetamide]
MIC (E. coli Tol C): > 64 µg/mL | MIC (M. catarrhalis BC3534): 1 µg/mL (≈ 2.3 µM) | MIC (H. influenzae HI3542): 8 µg/mL (≈ 18.4 µM) | MIC (S. aureus UC-76): 4 µg/mL (≈ 9.21 µM) | MIC (E. faecalis MGH-2): 0.5 µg/mL (≈ 1.15 µM) | MIC (S pyogenes C203): 0.5 µg/mL (≈ 1.15 µM)

CC(=O)NC[C@H]1CN(c2ccc3c(c2)CCCc2c(-c4ccncc4)n[nH]c2-3)C(=O)O1 [Example 96, (S)-N-[2-Oxo-3-(3-pyridin-4-yl-1,4,5,6-tetrahydro-1,2-diaza-benzo[e]azulen-8-yl)-oxazolidin-5-ylmethyl]-acetamide]
MIC (E. coli Tol C): > 64 µg/mL | MIC (M. catarrhalis BC3534): 2 µg/mL (≈ 4.79 µM) | MIC (H. influenzae HI3542): 4 µg/mL (≈ 9.58 µM) | MIC (S. aureus UC-76): 2 µg/mL (≈ 4.79 µM) | MIC (E. faecalis MGH-2): 1 µg/mL (≈ 2.4 µM) | MIC (S pyogenes C203): 0.25 µg/mL (≈ 0.599 µM)

CC(=O)NC[C@H]1CN(c2ccc3c(c2)CCCc2c(C(F)(F)F)n[nH]c2-3)C(=O)O1 [Example 97, (S)-N-[2-Oxo-3-(3-trifluoromethyl-1,4,5,6-tetrahydro-1,2-diaza-benzo[e]azulen-8-yl)-oxazolidin-5-ylmethyl]-acetamide]
MIC (E. coli Tol C): > 64 µg/mL | MIC (M. catarrhalis BC3534): 2 µg/mL (≈ 4.9 µM) | MIC (H. influenzae HI3542): > 4 µg/mL | MIC (S. aureus UC-76): 1 µg/mL (≈ 2.45 µM) | MIC (E. faecalis MGH-2): 1 µg/mL (≈ 2.45 µM) | MIC (S pyogenes C203): 0.5 µg/mL (≈ 1.22 µM)

CC(=O)NC[C@H]1CN(c2ccc3c(c2)CCCc2c(-c4ccccc4)n[nH]c2-3)C(=O)O1 [Example 98, (S)-N-[2-Oxo-3-(3-phenyl-1,4,5,6-tetrahydro-1,2-diaza-benzo[e]azulen-8-yl)-oxazolidin-5-ylmethyl]-acetamide]
MIC (E. coli Tol C): > 64 µg/mL | MIC (M. catarrhalis BC3534): 2 µg/mL (≈ 4.8 µM) | MIC (H. influenzae HI3542): 8 µg/mL (≈ 19.2 µM) | MIC (S. aureus UC-76): 0.5 µg/mL (≈ 1.2 µM) | MIC (E. faecalis MGH-2): 0.5 µg/mL (≈ 1.2 µM) | MIC (S pyogenes C203): 0.5 µg/mL (≈ 1.2 µM)

CC(=O)NC[C@H]1CN(c2ccc3c(c2)CCCc2c(C)n[nH]c2-3)C(=O)O1 [Example 99, (S)-N-[3-(3-Methyl-1,4,5,6-tetrahydro-1,2-diaza-benzo[e]azulen-8-yl)-2-oxo-oxazolidin-5-ylmethyl]-acetamide]
MIC (E. coli Tol C): > 64 µg/mL | MIC (M. catarrhalis BC3534): 4 µg/mL (≈ 11.3 µM) | MIC (H. influenzae HI3542): 4 µg/mL (≈ 11.3 µM) | MIC (S. aureus UC-76): 1 µg/mL (≈ 2.82 µM) | MIC (E. faecalis MGH-2): 1 µg/mL (≈ 2.82 µM) | MIC (S pyogenes C203): 0.5 µg/mL (≈ 1.41 µM)

CC(=O)NC[C@H]1CN(c2ccc3c(c2)CCCc2cn(C)nc2-3)C(=O)O1 [Example 122, (S)-N-[3-(2-Methyl-2,4,5,6-tetrahydro-1,2-diaza-benzo[e]azulen-8-yl)-2-oxo-oxazolidin-5-ylmethyl]-acetamide]
MIC (E. coli Tol C): > 64 µg/mL | MIC (M. catarrhalis BC3534): > 64 µg/mL | MIC (H. influenzae HI3542): > 64 µg/mL | MIC (S. aureus UC-76): 1 µg/mL (≈ 2.82 µM) | MIC (E. faecalis MGH-2): 1 µg/mL (≈ 2.82 µM) | MIC (S pyogenes C203): 0.5 µg/mL (≈ 1.41 µM)

O=C1O[C@@H](COc2ccon2)CN1c1ccc2c(c1)CCCc1cn[nH]c1-2 [Example 158, (R)-5-(Isoxazol-3-yloxymethyl)-3-(1,4,5,6-tetrahydro-1,2-diaza-benzo[e]azulen-8-yl)-oxazolidin-2-one]
MIC (E. coli Tol C): > 64 µg/mL | MIC (M. catarrhalis BC3534): 8 µg/mL (≈ 21.8 µM) | MIC (H. influenzae HI3542): > 64 µg/mL | MIC (S. aureus UC-76): 1 µg/mL (≈ 2.73 µM) | MIC (E. faecalis MGH-2): 2 µg/mL (≈ 5.46 µM) | MIC (S pyogenes C203): 1 µg/mL (≈ 2.73 µM)

O=C1O[C@@H](COc2ccon2)CN1c1ccc2c(c1)CCCc1cnoc1-2 [Example 159, (R)-3-(5,6-Dihydro-4H-1-oxa-2-aza-benzo[e]azulen-8-yl)-5-(isoxazol-3-yloxymethyl)-oxazolidin-2-one]
MIC (S. aureus UC-76): 4 µg/mL (≈ 10.9 µM) | MIC (E. faecalis MGH-2): 2 µg/mL (≈ 5.44 µM) | MIC (S pyogenes C203): 2 µg/mL (≈ 5.44 µM)

O=C1O[C@@H](COc2ccccn2)CN1c1ccc2c(c1)CCCc1cn[nH]c1-2 [Example 164, (R)-5-(Pyridin-2-yloxymethyl)-3-(1,4,5,6-tetrahydro-1,2-diaza-benzo[e]azulen-8-yl)-oxazolidin-2-one]
MIC (E. coli Tol C): > 64 µg/mL | MIC (M. catarrhalis BC3534): > 64 µg/mL | MIC (H. influenzae HI3542): > 64 µg/mL | MIC (S. aureus UC-76): 4 µg/mL (≈ 10.6 µM) | MIC (E. faecalis MGH-2): 4 µg/mL (≈ 10.6 µM) | MIC (S pyogenes C203): 2 µg/mL (≈ 5.31 µM)

O=C1O[C@@H](COc2ccccn2)CN1c1ccc2c(c1)CCCc1cnoc1-2 [Example 165, (R)-3-(5,6-Dihydro-4H-1-oxa-2-aza-benzo[e]azulen-8-yl)-5-(pyridin-2-yloxymethyl)-oxazolidin-2-one]
MIC (E. coli Tol C): > 64 µg/mL | MIC (M. catarrhalis BC3534): > 64 µg/mL | MIC (H. influenzae HI3542): > 64 µg/mL | MIC (S. aureus UC-76): 4 µg/mL (≈ 10.6 µM) | MIC (E. faecalis MGH-2): 4 µg/mL (≈ 10.6 µM) | MIC (S pyogenes C203): 2 µg/mL (≈ 5.3 µM)

(S)-N-[3-(2-Benzyl-2,4,5,6-tetrahydro-1,2-diaza-benzo[e]azulen-8-yl)-2-oxo-oxazolidin-5-ylmethyl]-acetamide and (S)-N-[3-(1-Benzyl-1,4,5,6-tetrahydro-1,2-diaza-benzo[e]azulen-8-yl)-2-oxo-oxazolidin-5-ylmethyl]-acetamide [Example 123]
Minimum Inhibitory Concentrations E. coli Tol C (E. coli Tol C): >64 µg/mL | Minimum Inhibitory Concentrations M. catarrhalis BC3534 (M. catarrhalis BC3534): >64 µg/mL | Minimum Inhibitory Concentrations H. influenzae HI3542 (H. influenzae HI3542): >64 µg/mL
